Here are results for 17 compounds from ChEMBL document CHEMBL3739401, “Synthesis, in vitro, and in vivo evaluation of novel functionalized quaternary ammonium curcuminoids as potential anti-cancer agents” (Bioorg Med Chem Lett, 2015).

Active and inactive are the calls of the source. The rule behind the calls is not given here.

Series [1] can be described thus: Aqueous solubility of compound. To be noted: water. It counts as physicochemical.
In a further series the test system is 4T1. Description: Cytotoxicity against mouse 4T1 cells by MTT assay. The class given is functional, cell-based.
The test system of series [2] is MDA-MB-231. The experiment in a line: Cytotoxicity against human MDA-MB-231 cells by MTT assay. It counts as functional, cell-based. On the technique in general: Tetrazolium dyes change colour on reduction, which living cells bring about.
Series [3] can be described thus: Cytotoxicity against human MIAPaCa2 cells by MTT assay. The class given is functional, cell-based. The following applies: MIA PaCa-2.
Series [4] relates to MDA-MB-231. Description: Cytotoxicity against human MDA-MB-231 cells at 20 to 50 uM by MTT assay. The class given is functional, cell-based.
Series [5] relates to Mus musculus. The experiment in a line: Toxicity in CD-1 mouse assessed as survival at 50 mg/kg, ip measured after 7 days. It counts as organism-based. The following applies: in vivo, 168 h.
For series [6], the system named is Mus musculus. The experiment in a line: Toxicity in CD-1 mouse assessed as sign of stress at 30 mg/kg, ip bid. It counts as organism-based. The following applies: in vivo.
Series [7] has as its system Mus musculus. Description: Toxicity in CD-1 mouse assessed as effect on body weight at 30 mg/kg, ip bid. The class given is organism-based. The following applies: in vivo.
Series [8] has as its system Mus musculus. The experiment in a line: Toxicity in CD-1 mouse assessed as effect on body weight at 50 mg/kg, ip measured after 7 days. The class given is organism-based. To be noted: in vivo, 168 h.
Series [9] is described as follows: Antitumor activity against human MIAPaCa2 cells xenografted in athymic nude mouse assessed as tumor growth inhibition at 40 mg/kg, ip bid. The following applies: MIA PaCa-2, ip, read-out: TGI. It counts as functional. (In xenograft studies the graft and the host belong to different species.)
In series [10] the test system is Mus musculus. Description: Toxicity in CD-1 mouse assessed as survival at 30 mg/kg, ip bid. The class given is organism-based. To be noted: in vivo.
The test system of series [11] is Mus musculus. Description: Toxicity in CD-1 mouse assessed as sign of stress at 50 mg/kg, ip measured after 7 days. The following applies: in vivo, 168 h. The class given is organism-based.
Series [12] is described as follows: Antitumor activity against human MIAPaCa2 cells xenografted in athymic nude mouse assessed as tumor growth inhibition at 40 mg/kg, ip bid cotreated with gemcitabine (100 mg/kg, ip twice weekly. It counts as functional, MIA PaCa-2.
The subject of series [13] is MDA-MB-231. The experiment in a line: Cytotoxicity against human MDA-MB-231 cells upto 50 uM by MTT assay. It counts as functional, cell-based.
Series [14] can be described thus: Antitumor activity against human MIAPaCa2 cells xenografted in athymic nude mouse assessed as tumor growth inhibition at 100 mg/kg, ip twice weekly. The class given is functional. The following applies: MIA PaCa-2, ip, read-out: TGI.

Take `C=CC[N+]1(C)CCOCC1`: in [1], the solubility is over 100000 µg/mL.
With `COc1cc(/C=C/C(=O)CC(=O)/C=C/c2ccc(O)c(OC)c2)ccc1O` [CURCUMIN], the IC50 in the series with 4T1 was 20 µM; with MDA-MB-231 [2] it was 15 µM; in series [3], 20 µM.
In turn, `C=C(C[N+]1(C)CCN(c2ccc(/C=C/C(=O)/C=C(O)/C=C/c3ccc(N4CC[N+](C)(CC(=C)C(=O)N(C)C)CC4)cc3)cc2)CC1)C(=O)N(C)C.[Br-].[Br-]` came in with a solubility in series [1] of 1000 µg/mL. For the same compound, the figures for the IC50 (in the series on 4T1; in the series with MDA-MB-231 [2]; in series [3]) were 17.2 µM, 15.1 µM and 14.2 µM, respectively.
`C=C(C[N+]1(C)CCOCC1)C(=O)OC`: the solubility in [1] was over 100000 µg/mL.
Turning to `O=C(/C=C(O)/C=C/c1ccc(N2CCN(CCO)CC2)cc1)/C=C/c1ccc(N2CCN(CCO)CC2)cc1`, the IC50 (in the series with 4T1; with MDA-MB-231 [2]; in series [3]) was over 100 µM each time.
In series [1], `C=C(C[N+]1(C)CCN(c2ccc(/C=C/C(=O)/C=C(O)/C=C/c3ccc(N4CC[N+](C)(CC(=C)C(=O)OCCCCCC)CC4)cc3)cc2)CC1)C(=O)OCCCCCC.[Br-].[Br-]` had a solubility of 1000 µg/mL. The figures for the IC50 (with 4T1; in the series with MDA-MB-231 [2]; in [3]) were 3.4 µM, 4.2 µM and 4.2 µM, respectively.
Regarding `COC(=O)/C(=C/c1ccccc1)CBr`, the result in the series on MDA-MB-231 [4] was Active.
For `C=C(C[N+]1(C)CCN(c2ccc(/C=C/C(=O)/C=C(O)/C=C/c3ccc(N4CC[N+](C)(CC(=C)C(=O)OC)CC4)cc3)cc2)CC1)C(=O)OC.[Br-].[Br-]`, the Activity entry with Mus musculus [5], in the series on Mus musculus [6], with Mus musculus [7], in the series on Mus musculus [8], with Mus musculus [10] and in the series with Mus musculus [11] was “Non-toxic” in each case. This compound also had a solubility in series [1] of 1000 µg/mL. In addition, the IC50 with 4T1 came out at 4.1 µM; in the series on MDA-MB-231 [2] it was 3.6 µM; in [3], 2.7 µM. Moreover, the inhibition in vivo at 40 mg/kg in series [9] came out at 42%. In [12], the TGI worked out at 57%.
As for `C=C(CBr)C(=O)OC`, the result in the series with MDA-MB-231 [4] was Active.
Turning to `C[N+]1(Cc2ccccc2)CCN(c2ccc(/C=C/C(=O)/C=C(O)/C=C/c3ccc(N4CC[N+](C)(Cc5ccccc5)CC4)cc3)cc2)CC1.[Br-].[Br-]`, the solubility in [1] was 15000 µg/mL. The IC50 (with 4T1; in the series with MDA-MB-231 [2]; in [3]) was over 100 µM each time.
Consider `C=C(C(=O)OC)C(O)c1ccccc1` (configuration not stated), for which, in the series on MDA-MB-231 [13], the outcome was inactive.
For `CN1CCN(c2ccc(/C=C/C(=O)/C=C(O)/C=C/c3ccc(N4CCN(C)CC4)cc3)cc2)CC1`, the IC50 (in the series on 4T1; with MDA-MB-231 [2]; in series [3]) was over 100 µM in each case.
`C=CC[N+]1(C)CCN(c2ccc(/C=C/C(=O)/C=C(O)/C=C/c3ccc(N4CC[N+](C)(CC=C)CC4)cc3)cc2)CC1.[Br-].[Br-]` returned a solubility in series [1] of 15000 µg/mL. Also, the concentration for half-maximal inhibition (IC50) (in the series on 4T1; with MDA-MB-231 [2]; in series [3]) was over 100 µM in each case.
In [1], `C=C(C[N+]1(C)CCN(c2ccc(/C=C/C(=O)/C=C(O)/C=C/c3ccc(N4CC[N+](C)(CC(=C)C(=O)OCCCC)CC4)cc3)cc2)CC1)C(=O)OCCCC.[Br-].[Br-]` showed a solubility of 1000 µg/mL. Further, the results for the IC50 (in the series on 4T1; in the series with MDA-MB-231 [2]; in [3]) were 4.1 µM, 3.7 µM and 4.4 µM, respectively.
Take `Nc1ccn([C@@H]2O[C@H](CO)[C@@H](O)C2(F)F)c(=O)n1` [GEMCITABINE]: the inhibition in vivo at 100 mg/kg in series [14] is 47%.
Turning to `C[N+]1(Cc2ccccc2)CCOCC1`, the solubility in series [1] is over 100000 µg/mL.
Take `COC(=O)/C(=C\c1ccccc1)C[N+]1(C)CCN(c2ccc(/C=C/C(=O)/C=C(O)/C=C/c3ccc(N4CC[N+](C)(C/C(=C/c5ccccc5)C(=O)OC)CC4)cc3)cc2)CC1.[Br-].[Br-]`: the concentration in solution in series [1] (solubility) was 1000 µg/mL. The IC50 with 4T1 was 5 µM; with MDA-MB-231 [2] it was 6.2 µM; in series [3], 4.1 µM.

As a reminder, the solubility is the dissolved amount per volume that the medium holds. Read a low solubility as little dissolved substance. One may read the IC50 as the point on the concentration scale where inhibition reaches its midpoint. A lower IC50 goes with inhibition by little substance. A word on the TGI: it is the reduction of tumour growth relative to the control group.
